{
  "source": "patent US8765677B2",
  "about": "(priority 2009, dated 2014)",
  "key": {"[1]": {"system": "recombinant N-type (Cav2.2) VGCCs α1B-b/β3", "assay_type": "cell-based, rat"}, "[2]": {"target": "recombinant N-type (Cav2.2) VGCCs α1B-b/α2δ1/β3 (Rattus norvegicus, UniProt Q02294)", "sequence (Q02294 whole entry, looked up)": "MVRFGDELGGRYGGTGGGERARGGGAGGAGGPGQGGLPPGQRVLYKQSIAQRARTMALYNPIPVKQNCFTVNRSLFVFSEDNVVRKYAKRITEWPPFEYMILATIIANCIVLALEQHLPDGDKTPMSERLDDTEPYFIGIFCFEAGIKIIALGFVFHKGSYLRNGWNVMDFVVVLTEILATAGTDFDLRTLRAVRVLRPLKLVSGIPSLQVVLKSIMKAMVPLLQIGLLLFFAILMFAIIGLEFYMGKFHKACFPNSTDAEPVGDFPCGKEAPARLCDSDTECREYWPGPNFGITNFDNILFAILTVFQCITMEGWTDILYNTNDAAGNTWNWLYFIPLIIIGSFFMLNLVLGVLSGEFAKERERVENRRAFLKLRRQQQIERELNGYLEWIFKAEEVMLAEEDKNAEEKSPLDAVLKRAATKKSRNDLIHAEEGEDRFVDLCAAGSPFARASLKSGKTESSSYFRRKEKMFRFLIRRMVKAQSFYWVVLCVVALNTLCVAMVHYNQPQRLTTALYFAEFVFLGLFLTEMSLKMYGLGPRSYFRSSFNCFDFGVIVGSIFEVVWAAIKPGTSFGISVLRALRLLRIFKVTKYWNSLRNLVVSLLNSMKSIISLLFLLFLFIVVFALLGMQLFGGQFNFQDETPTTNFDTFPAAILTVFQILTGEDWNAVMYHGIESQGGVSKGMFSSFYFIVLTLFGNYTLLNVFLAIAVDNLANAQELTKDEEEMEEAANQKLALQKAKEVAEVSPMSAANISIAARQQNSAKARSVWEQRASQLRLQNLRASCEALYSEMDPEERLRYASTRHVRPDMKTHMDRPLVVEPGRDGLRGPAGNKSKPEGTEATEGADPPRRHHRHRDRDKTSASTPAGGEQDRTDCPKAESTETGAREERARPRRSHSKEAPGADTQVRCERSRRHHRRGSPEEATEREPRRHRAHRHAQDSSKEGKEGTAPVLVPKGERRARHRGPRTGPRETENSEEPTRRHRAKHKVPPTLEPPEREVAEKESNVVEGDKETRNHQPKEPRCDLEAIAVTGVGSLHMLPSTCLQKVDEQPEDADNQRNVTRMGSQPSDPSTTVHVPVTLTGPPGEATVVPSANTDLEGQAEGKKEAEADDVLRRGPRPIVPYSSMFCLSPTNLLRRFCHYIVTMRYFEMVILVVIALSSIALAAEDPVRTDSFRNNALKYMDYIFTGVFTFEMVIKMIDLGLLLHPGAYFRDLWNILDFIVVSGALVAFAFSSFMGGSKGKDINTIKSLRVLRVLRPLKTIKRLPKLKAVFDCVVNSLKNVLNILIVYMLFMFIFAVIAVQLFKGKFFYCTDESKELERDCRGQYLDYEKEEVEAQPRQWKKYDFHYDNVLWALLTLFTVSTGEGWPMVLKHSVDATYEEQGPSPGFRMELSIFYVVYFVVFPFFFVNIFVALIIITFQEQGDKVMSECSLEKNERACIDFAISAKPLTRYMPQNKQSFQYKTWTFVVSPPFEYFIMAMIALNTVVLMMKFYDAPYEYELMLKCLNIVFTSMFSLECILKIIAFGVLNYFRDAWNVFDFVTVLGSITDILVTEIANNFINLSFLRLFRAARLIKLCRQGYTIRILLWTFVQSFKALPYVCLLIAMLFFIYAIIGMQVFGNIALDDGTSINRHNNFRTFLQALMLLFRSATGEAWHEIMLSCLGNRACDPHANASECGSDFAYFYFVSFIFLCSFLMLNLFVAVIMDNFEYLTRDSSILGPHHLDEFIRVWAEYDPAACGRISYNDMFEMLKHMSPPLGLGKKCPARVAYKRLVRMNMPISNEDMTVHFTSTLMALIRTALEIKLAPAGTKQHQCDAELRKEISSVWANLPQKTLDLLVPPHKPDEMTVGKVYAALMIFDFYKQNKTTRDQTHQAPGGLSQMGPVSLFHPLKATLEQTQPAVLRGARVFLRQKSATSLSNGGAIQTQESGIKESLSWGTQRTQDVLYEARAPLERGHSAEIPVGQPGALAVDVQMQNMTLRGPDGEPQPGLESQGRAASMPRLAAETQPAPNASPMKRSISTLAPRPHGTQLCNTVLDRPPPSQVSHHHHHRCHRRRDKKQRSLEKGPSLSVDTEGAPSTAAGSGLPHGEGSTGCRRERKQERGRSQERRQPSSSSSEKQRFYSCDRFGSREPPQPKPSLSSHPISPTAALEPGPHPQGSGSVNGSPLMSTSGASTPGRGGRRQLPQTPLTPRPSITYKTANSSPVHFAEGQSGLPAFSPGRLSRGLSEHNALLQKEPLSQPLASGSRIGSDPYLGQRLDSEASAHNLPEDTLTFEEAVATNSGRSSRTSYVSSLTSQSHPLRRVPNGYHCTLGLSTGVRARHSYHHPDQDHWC", "experiment": "cell-based", "assay_type": "cell-based"}, "[3]": {"target": "recombinant Cav1.2 α1C (L-type) channels (α/α2δ1/β3) (Oryctolagus cuniculus, UniProt P15381)", "assay_type": "cell-based, rabbit"}, "[4]": {"target": "recombinant Cav2.1 α1A (P/Q-type) channels (α/α2δ1/β3) (Oryctolagus cuniculus, UniProt P27884)", "experiment": "cell-based", "design": "species or system rabbit", "conditions": "read-out: inhibition of Cav2.1 channels"}, "[5]": {"target": "recombinant Cav1.3 α1D (L-type) channels (α/α2δ1/β3) (Rattus norvegicus, UniProt P27732)", "assay_type": "cell-based"}, "[6]": {"target": "recombinant Cav2.3 α1E (R-type) channels (α/α2δ1/β3) (Rattus norvegicus, UniProt Q07652)", "sequence (Q07652 whole entry, looked up)": "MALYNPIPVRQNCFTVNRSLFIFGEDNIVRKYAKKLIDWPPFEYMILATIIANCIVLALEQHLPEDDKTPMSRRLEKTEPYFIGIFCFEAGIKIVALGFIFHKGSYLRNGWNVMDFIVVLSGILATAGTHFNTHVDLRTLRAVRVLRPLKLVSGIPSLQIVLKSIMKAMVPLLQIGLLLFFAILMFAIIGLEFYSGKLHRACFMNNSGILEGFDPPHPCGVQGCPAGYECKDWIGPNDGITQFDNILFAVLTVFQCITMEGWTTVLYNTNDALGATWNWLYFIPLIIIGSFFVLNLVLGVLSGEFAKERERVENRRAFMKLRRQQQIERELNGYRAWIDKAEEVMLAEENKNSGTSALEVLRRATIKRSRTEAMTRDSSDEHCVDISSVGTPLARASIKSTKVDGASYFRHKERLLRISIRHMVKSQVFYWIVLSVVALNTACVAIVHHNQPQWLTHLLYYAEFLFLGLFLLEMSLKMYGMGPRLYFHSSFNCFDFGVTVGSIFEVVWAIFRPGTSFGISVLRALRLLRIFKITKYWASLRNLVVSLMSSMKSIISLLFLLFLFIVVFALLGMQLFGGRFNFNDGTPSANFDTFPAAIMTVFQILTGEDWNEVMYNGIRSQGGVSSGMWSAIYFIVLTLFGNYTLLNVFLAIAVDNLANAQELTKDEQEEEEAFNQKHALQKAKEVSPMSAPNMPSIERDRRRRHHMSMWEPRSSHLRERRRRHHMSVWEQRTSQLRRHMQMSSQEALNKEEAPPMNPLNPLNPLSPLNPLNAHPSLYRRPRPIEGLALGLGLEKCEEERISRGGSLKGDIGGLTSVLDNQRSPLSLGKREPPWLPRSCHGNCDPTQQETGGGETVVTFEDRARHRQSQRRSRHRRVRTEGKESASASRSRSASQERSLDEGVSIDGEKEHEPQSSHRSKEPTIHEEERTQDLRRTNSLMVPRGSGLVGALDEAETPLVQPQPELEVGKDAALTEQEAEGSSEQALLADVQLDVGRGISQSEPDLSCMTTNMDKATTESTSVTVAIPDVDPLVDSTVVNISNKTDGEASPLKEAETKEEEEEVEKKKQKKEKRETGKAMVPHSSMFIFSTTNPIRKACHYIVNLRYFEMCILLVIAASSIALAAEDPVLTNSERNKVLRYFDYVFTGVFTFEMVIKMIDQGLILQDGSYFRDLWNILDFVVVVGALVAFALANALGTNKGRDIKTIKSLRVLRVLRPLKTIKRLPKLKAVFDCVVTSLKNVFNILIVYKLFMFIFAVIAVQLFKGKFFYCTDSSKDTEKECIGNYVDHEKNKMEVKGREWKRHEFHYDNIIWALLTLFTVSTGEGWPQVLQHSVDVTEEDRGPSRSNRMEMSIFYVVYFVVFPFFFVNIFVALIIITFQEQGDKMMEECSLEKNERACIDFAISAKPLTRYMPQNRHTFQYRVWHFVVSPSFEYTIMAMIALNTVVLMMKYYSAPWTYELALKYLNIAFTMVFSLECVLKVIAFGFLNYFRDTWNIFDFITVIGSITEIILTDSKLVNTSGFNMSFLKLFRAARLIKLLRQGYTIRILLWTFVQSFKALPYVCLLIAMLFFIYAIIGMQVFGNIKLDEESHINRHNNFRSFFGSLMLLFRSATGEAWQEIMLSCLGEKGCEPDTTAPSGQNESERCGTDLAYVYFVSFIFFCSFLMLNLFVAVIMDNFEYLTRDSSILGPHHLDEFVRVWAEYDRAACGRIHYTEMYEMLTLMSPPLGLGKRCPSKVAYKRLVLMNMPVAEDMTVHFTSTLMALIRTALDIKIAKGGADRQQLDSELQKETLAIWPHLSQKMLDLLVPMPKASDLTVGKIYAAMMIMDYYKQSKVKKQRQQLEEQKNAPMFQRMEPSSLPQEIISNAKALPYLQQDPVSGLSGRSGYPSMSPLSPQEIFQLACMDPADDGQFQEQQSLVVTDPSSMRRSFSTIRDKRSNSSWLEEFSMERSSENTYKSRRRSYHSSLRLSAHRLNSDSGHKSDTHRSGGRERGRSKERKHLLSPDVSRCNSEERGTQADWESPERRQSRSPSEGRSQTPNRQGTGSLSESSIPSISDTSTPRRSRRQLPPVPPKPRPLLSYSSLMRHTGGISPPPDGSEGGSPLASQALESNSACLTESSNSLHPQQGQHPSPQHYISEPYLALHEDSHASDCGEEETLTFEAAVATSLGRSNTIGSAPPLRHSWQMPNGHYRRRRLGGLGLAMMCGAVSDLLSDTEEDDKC", "assay_type": "cell-based"}},
  "note": "Values joined by “and” are separate entries in the source; they are usually repeats but may differ in a detail not shown here. Equal values may be shown once. Where a SMILES comes first, the peptide text is derived from it.",
  "data": [
    {"smiles": "CSCC[C@@H]1NC(=O)[C@H]([C@@H](C)O)NC(=O)[C@H](CCCCN)NC(=O)[C@H](CCCNC(=N)N)NC(=O)[C@@H]2CSSC[C@@H]3NC(=O)[C@H](CO)NC(=O)CNC(=O)[C@H](CCCNC(=N)N)NC(=O)[C@H](CSSC[C@H](N)C(=O)N[C@@H](CCCCN)C(=O)NCC(=O)N[C@@H](CCCCN)C(=O)NCC(=O)N[C@@H](C)C(=O)N[C@@H](CO)C(=O)N2)NC(=O)[C@H](CSSC[C@@H](C(N)=O)NC(=O)[C@H](CCCNC(=N)N)NC(=O)CNC(=O)[C@H](CO)NC(=O)[C@H](CCCNC(=N)N)NC3=O)NC(=O)[C@H](CC(=O)O)NC(=O)[C@H](Cc2ccc(O)cc2)NC1=O", "note": "[CVIB, reference compound] (HELM PEPTIDE1{C.K.G.K.G.A.S.C.R.K.T.M.Y.D.C.C.R.G.S.C.R.S.G.R.C.[am]}$PEPTIDE1,PEPTIDE1,1:R3-16:R3|PEPTIDE1,PEPTIDE1,8:R3-20:R3|PEPTIDE1,PEPTIDE1,15:R3-25:R3$$$V2.0)", "values": [
      {"measurement": "IC50", "setting": "[1]", "result": "1.6 ± 0.6", "unit": "nM"},
      {"measurement": "Hill slope", "setting": "[2]", "result": "0.47±0.03"},
      {"measurement": "IC50", "setting": "[2]", "result": "12 ± 2.3", "unit": "nM"}
    ]},
    {"smiles": "C[C@@H]1NC(=O)CNC(=O)[C@H](CCCCN)NC(=O)CNC(=O)[C@H](CCCCN)NC(=O)[C@@H](N)CSSC[C@@H]2NC(=O)[C@@H]3CSSC[C@@H](C(N)=O)NC(=O)[C@H](CCCNC(=N)N)NC(=O)CNC(=O)[C@H](CO)NC(=O)[C@H](CCCNC(=N)N)NC(=O)[C@H](CSSC[C@H](NC(=O)[C@H](CO)NC1=O)C(=O)N[C@@H](CCCNC(=N)N)C(=O)N[C@@H](CCCNC(=N)N)C(=O)N[C@@H]([C@@H](C)O)C(=O)N[C@@H](CO)C(=O)N[C@@H](Cc1ccc(O)cc1)C(=O)N[C@@H](CC(=O)O)C(=O)N3)NC(=O)[C@H](CO)NC(=O)CNC(=O)[C@H]([C@@H](C)O)NC2=O", "note": "[CVIE, CKGKGASCRRTSYDCCTGSCRSGRC]", "values": [
      {"measurement": "IC50", "setting": "[1]", "result": "0.12 ± 0.05", "unit": "nM"},
      {"measurement": "effect on Cav1.2 channels", "setting": "[3]", "result": "neither peptide had any effect"},
      {"measurement": "inhibition at 3 µM", "setting": "[4]", "result": "< 10", "unit": "%"},
      {"measurement": "effect on Cav1.3 channels", "setting": "[5]", "result": "neither peptide had any effect"},
      {"measurement": "effect on Cav2.3 channels", "setting": "[6]", "result": "neither peptide had any effect"},
      {"measurement": "Hill slope", "setting": "[2]", "result": "0.45±0.03"},
      {"measurement": "IC50", "setting": "[2]", "result": "2.6 ± 0.5", "unit": "nM"},
      {"measurement": "inhibition of depolarization-activated Ba2+ currents (IBa)", "setting": "[2]", "result": "potently inhibited"},
      {"measurement": "time constant of block (τon)", "setting": "[2]", "result": "31.5 ± 2.4 s and 38.5 ± 2.8 s"}
    ]},
    {"smiles": "CC(C)C[C@@H]1NC(=O)[C@H](CCCNC(=N)N)NC(=O)[C@@H]2CSSC[C@@H]3NC(=O)[C@H](CO)NC(=O)[C@H](C)NC(=O)CNC(=O)[C@H](CCCCN)NC(=O)CNC(=O)[C@H](CCCCN)NC(=O)[C@@H](N)CSSC[C@H](NC(=O)[C@H](CSSC[C@@H](C(N)=O)NC(=O)[C@H](CCCNC(=N)N)NC(=O)CNC1=O)NC(=O)[C@H](CC(=O)O)NC(=O)[C@H](Cc1ccc(O)cc1)NC(=O)[C@H](CO)NC(=O)[C@H]([C@@H](C)O)NC(=O)[C@H](CCCNC(=N)N)NC(=O)[C@H](CCCNC(=N)N)NC3=O)C(=O)N[C@@H]([C@@H](C)O)C(=O)NCC(=O)N[C@@H](CO)C(=O)N2", "note": "[CVIF] (HELM PEPTIDE1{C.K.G.K.G.A.S.C.R.R.T.S.Y.D.C.C.T.G.S.C.R.L.G.R.C.[am]}$PEPTIDE1,PEPTIDE1,1:R3-16:R3|PEPTIDE1,PEPTIDE1,8:R3-20:R3|PEPTIDE1,PEPTIDE1,15:R3-25:R3$$$V2.0)", "values": [
      {"measurement": "IC50", "setting": "[1]", "result": "0.1 ± 0.07", "unit": "nM"},
      {"measurement": "effect on Cav1.2 channels", "setting": "[3]", "result": "neither peptide had any effect"},
      {"measurement": "inhibition at 3 µM", "setting": "[4]", "result": "< 10", "unit": "%"},
      {"measurement": "effect on Cav1.3 channels", "setting": "[5]", "result": "neither peptide had any effect"},
      {"measurement": "effect on Cav2.3 channels", "setting": "[6]", "result": "neither peptide had any effect"},
      {"measurement": "Hill slope", "setting": "[2]", "result": "0.51±0.04"},
      {"measurement": "inhibition of depolarization-activated Ba2+ currents (IBa)", "setting": "[2]", "result": "potently inhibited"}
    ]}
  ]
}
